{"source": "patent US10238670B2", "about": "“9-aminomethyl minocycline compounds and methods of use thereof in urinary tract infection (UTI) treatment” (Paratek Pharmaceuticals, Inc., priority 2016, dated 2019)", "test_in_all_cases": "In vitro MIC, 2010 surveillance isolates", "key": {"E. coli ESBL−": {"system": "E. coli ESBL−", "assay_type": "cell-based, Escherichia coli", "details": "for % R (resistance): CLSI breakpoints"}, "E. coli ESBL+": {"system": "E. coli ESBL+", "assay_type": "cell-based, Escherichia coli", "details": "for % R (resistance): CLSI breakpoints"}, "K. pneumoniae ESBL−": {"system": "K. pneumoniae ESBL−", "assay_type": "cell-based, Klebsiella pneumoniae", "details": "for % R (resistance): CLSI breakpoints"}, "K. pneumoniae ESBL+": {"system": "K. pneumoniae ESBL+", "assay_type": "cell-based, Klebsiella pneumoniae", "details": "for % R (resistance): CLSI breakpoints"}, "K. oxytoca": {"system": "K. oxytoca", "assay_type": "cell-based", "details": "for % R (resistance): CLSI breakpoints"}, "E. cloacae CeftazS": {"system": "E. cloacae CeftazS", "assay_type": "cell-based", "details": "for % R (resistance): CLSI breakpoints"}, "E. cloacae CeftazR": {"system": "E. cloacae CeftazR", "assay_type": "cell-based", "details": "for % R (resistance): CLSI breakpoints"}, "Enterobacter spp": {"system": "Enterobacter spp", "assay_type": "cell-based", "details": "for % R (resistance): CLSI breakpoints"}, "A. baumanii": {"system": "A. baumanii", "assay_type": "cell-based"}, "Acinetobacter spp": {"system": "Acinetobacter spp", "assay_type": "cell-based", "details": "for range of MICs (N <10, shown instead of MIC90): N=9"}}, "data": [{"smiles": "C[C@H]1c2cccc(O)c2C(=O)C2=C(O)[C@]3(O)C(=O)C(C(N)=O)=C(O)[C@@H](N(C)C)[C@@H]3[C@@H](O)[C@@H]21", "note": "[Doxycycline]", "values": [{"measurement": "MIC90", "setting": "E. coli ESBL−; Asia/Pac, N=282", "result": "> 8", "unit": "µg/mL"}, {"measurement": "MIC90", "setting": "E. coli ESBL−; Europe, N=1533", "result": "> 8", "unit": "µg/mL"}, {"measurement": "% R (resistance)", "setting": "E. coli ESBL−; L. Amer", "result": 31.4, "unit": "%"}, {"measurement": "MIC90", "setting": "E. coli ESBL−; L. Amer, N=389", "result": "> 8", "unit": "µg/mL"}, {"measurement": "% R (resistance)", "setting": "E. coli ESBL−; N America", "result": 16, "unit": "%"}, {"measurement": "MIC90", "setting": "E. coli ESBL−; N America, N=1172", "result": "> 8", "unit": "µg/mL"}, {"measurement": "MIC90", "setting": "E. coli ESBL+; Asia/Pac, N=219", "result": "> 8", "unit": "µg/mL"}, {"measurement": "resistance rates for ESBL-producing clinical isolates", "setting": "E. coli ESBL+; E. coli", "result": 46, "unit": "%"}, {"measurement": "MIC90", "setting": "E. coli ESBL+; Europe, N=274", "result": "> 8", "unit": "µg/mL"}, {"measurement": "% R (resistance)", "setting": "E. coli ESBL+; L. Amer", "result": 53, "unit": "%"}, {"measurement": "MIC90", "setting": "E. coli ESBL+; L. Amer, N=168", "result": "> 8", "unit": "µg/mL"}, {"measurement": "% R (resistance)", "setting": "E. coli ESBL+; N America", "result": 42.5, "unit": "%"}, {"measurement": "MIC90", "setting": "E. coli ESBL+; N America, N=134", "result": "> 8", "unit": "µg/mL"}, {"measurement": "MIC90", "setting": "K. pneumoniae ESBL−; Asia/Pac, N=189", "result": "> 8", "unit": "µg/mL"}, {"measurement": "MIC90", "setting": "K. pneumoniae ESBL−; Europe, N=361", "result": "> 8", "unit": "µg/mL"}, {"measurement": "% R (resistance)", "setting": "K. pneumoniae ESBL−; L. Amer", "result": 17.5, "unit": "%"}, {"measurement": "MIC90", "setting": "K. pneumoniae ESBL−; L. Amer, N=160", "result": "> 8", "unit": "µg/mL"}, {"measurement": "% R (resistance)", "setting": "K. pneumoniae ESBL−; N America", "result": 13.7, "unit": "%"}, {"measurement": "MIC90", "setting": "K. pneumoniae ESBL−; N America, N=671", "result": "> 8", "unit": "µg/mL"}, {"measurement": "MIC90", "setting": "K. pneumoniae ESBL+; Asia/Pac, N=124", "result": "> 8", "unit": "µg/mL"}, {"measurement": "MIC90", "setting": "K. pneumoniae ESBL+; Europe, N=151", "result": "> 8", "unit": "µg/mL"}, {"measurement": "% R (resistance)", "setting": "K. pneumoniae ESBL+; L. Amer", "result": 44, "unit": "%"}, {"measurement": "MIC90", "setting": "K. pneumoniae ESBL+; L. Amer, N=209", "result": "> 8", "unit": "µg/mL"}, {"measurement": "% R (resistance)", "setting": "K. pneumoniae ESBL+; N America", "result": 43.5, "unit": "%"}, {"measurement": "MIC90", "setting": "K. pneumoniae ESBL+; N America, N=108", "result": "> 8", "unit": "µg/mL"}, {"measurement": "MIC90", "setting": "K. oxytoca; Asia/Pac, N=17", "result": 2, "unit": "µg/mL"}, {"measurement": "MIC90", "setting": "K. oxytoca; Europe, N=158", "result": 2, "unit": "µg/mL"}, {"measurement": "% R (resistance)", "setting": "K. oxytoca; L. Amer", "result": 12, "unit": "%"}, {"measurement": "MIC90", "setting": "K. oxytoca; L. Amer, N=25", "result": "> 8", "unit": "µg/mL"}, {"measurement": "% R (resistance)", "setting": "K. oxytoca; N America", "result": 2.3, "unit": "%"}, {"measurement": "MIC90", "setting": "K. oxytoca; N America, N=177", "result": 4, "unit": "µg/mL"}, {"measurement": "MIC90", "setting": "E. cloacae CeftazS; Asia/Pac, N=100", "result": "> 8", "unit": "µg/mL"}, {"measurement": "MIC90", "setting": "E. cloacae CeftazS; Europe, N=183", "result": 4, "unit": "µg/mL"}, {"measurement": "% R (resistance)", "setting": "E. cloacae CeftazS; L. Amer", "result": 12.3, "unit": "%"}, {"measurement": "MIC90", "setting": "E. cloacae CeftazS; L. Amer, N=57", "result": "> 8", "unit": "µg/mL"}, {"measurement": "% R (resistance)", "setting": "E. cloacae CeftazS; N America", "result": 6.2, "unit": "%"}, {"measurement": "MIC90", "setting": "E. cloacae CeftazS; N America, N=210", "result": 4, "unit": "µg/mL"}, {"measurement": "MIC90", "setting": "E. cloacae CeftazR; Asia/Pac, N=63", "result": 8, "unit": "µg/mL"}, {"measurement": "MIC90", "setting": "E. cloacae CeftazR; Europe, N=72", "result": "> 8", "unit": "µg/mL"}, {"measurement": "% R (resistance)", "setting": "E. cloacae CeftazR; L. Amer", "result": 14.3, "unit": "%"}, {"measurement": "MIC90", "setting": "E. cloacae CeftazR; L. Amer, N=42", "result": "> 8", "unit": "µg/mL"}, {"measurement": "% R (resistance)", "setting": "E. cloacae CeftazR; N America", "result": 28.6, "unit": "%"}, {"measurement": "MIC90", "setting": "E. cloacae CeftazR; N America, N=77", "result": "> 8", "unit": "µg/mL"}, {"measurement": "MIC90", "setting": "Enterobacter spp; Asia/Pac, N=52", "result": "> 8", "unit": "µg/mL"}, {"measurement": "MIC90", "setting": "Enterobacter spp; Europe, N=82", "result": 8, "unit": "µg/mL"}, {"measurement": "% R (resistance)", "setting": "Enterobacter spp; L. Amer", "result": 0, "unit": "%"}, {"measurement": "MIC90", "setting": "Enterobacter spp; L. Amer, N=42", "result": 4, "unit": "µg/mL"}, {"measurement": "% R (resistance)", "setting": "Enterobacter spp; N America", "result": 7.9, "unit": "%"}, {"measurement": "MIC90", "setting": "Enterobacter spp; N America, N=101", "result": 4, "unit": "µg/mL"}, {"measurement": "MIC90", "setting": "A. baumanii; Asia/Pac, N=275", "result": "> 8", "unit": "µg/mL"}, {"measurement": "MIC90", "setting": "A. baumanii; Europe, N=145", "result": "> 8", "unit": "µg/mL"}, {"measurement": "% R (resistance)", "setting": "A. baumanii; L. Amer, CLSI breakpoints", "result": 15.3, "unit": "%"}, {"measurement": "MIC90", "setting": "A. baumanii; L. Amer, N=275", "result": "> 8", "unit": "µg/mL"}, {"measurement": "MIC90", "setting": "A. baumanii; N America, N=154", "result": "> 8", "unit": "µg/mL"}, {"measurement": "range of MICs (N <10, shown instead of MIC90)", "setting": "Acinetobacter spp; Asia/Pac", "result": "≤0.06-2"}, {"measurement": "MIC90", "setting": "Acinetobacter spp; Europe, N=43", "result": "> 8", "unit": "µg/mL"}, {"measurement": "% R (resistance)", "setting": "Acinetobacter spp; L. Amer, CLSI breakpoints", "result": 0, "unit": "%"}, {"measurement": "range of MICs (N <10, shown instead of MIC90)", "setting": "Acinetobacter spp; L. Amer", "result": "≤0.06-2"}]}]}
